Measured values as given in patent publication US10350199B2, “3-(1h-pyrrolo[2,3-b]pyridin-2-yl)-1h-indazoles and therapeutic uses thereof” (Samumed, LLC, priority 2015, dated 2019).

Legend:
Type in all cases: cell-based
[1] = system: primary human mesenchymal stem cells (hMSCs); assay: Induction of chondrogenesis in human mesenchymal stem cells (nodule area, Rhodamine B/Nile Red); settings: hMSC chondrogenesis; for EC50: concentration required to induce 50% levels of chondrogenesis of TGF-β3 positive control, read-out: Conc (nM) of 50% TGF-β3 activity; for Emax: relative to TGF-β3 (10 ng/mL) positive control, read-out: Max. Activity as % TGF-β3 activity
Text: Representative compounds were screened using primary human mesenchymal stem cells (hMSCs) to determine their ability to induce chondrogenesis (process by which cartilage is developed).
Primary human mesenchymal stem cells (hMSCs) were purchased from Lonza (Walkersville, Md.) and expanded in Mesenchymal Stem Cell Growth Media (Lonza). Cells between passage 3 and 6 were used for the experiments.
Area of nodules in each well was normalized to the average of 3 DMSO treated wells on the same plate using Excel (Microsoft Inc.). The normalized averages (fold change over DMSO) of 2 or 3 replicate wells for each compound concentration were calculated. Due to solubility limitations of some of the compounds, curve fitting was incomplete leading to inaccurate EC50 determinations.
Using TGF-β3 as a positive control, the concentration of representative compounds required to induce 50% levels of chondrogenesis is reported. In addition, the maximum activity of each compound and the respective dose that each compound reached maximum chondrogenesis activity is reported.

[2] = system: IL-6 (THP-1 human monocyte cell line); assay: IL-6 inhibition in LPS-stimulated THP-1 cells (HTRF); settings: for EC50: IL-6 inhibition, LPS-stimulated THP-1 cells, HTRF; for inhibition at 10 µM: THP-1, read-out: percentage in parentheses beside EC50 >10 (IL-6 inhibition)
Method in brief: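 THP-1 cells kept 24 h in 1% FBS medium, treated 2 h at 37 °C, then stimulated with 500 ng/mL LPS for another 22 h. IL-6 measured by HTRF as the 665/620 nm ratio; EC50 from a four-parameter fit normalized to DMSO controls.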

[3] = system: Wnt activity (Sp5-Luc reporter, SW480 colon carcinoma cells); assay: Wnt activity screening assay, Sp5-Luc reporter gene in SW480 cells; settings: Homo sapiens; for EC50: Sp5-Luc reporter, SW480 cells, overnight incubation; for inhibition at 10 µM: SW480, read-out: percent inhibition at 10 μM
Method in brief: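 SW480 cells stably transduced with lentiviral Sp5 promoter (eight TCF/LEF sites)-firefly luciferase, plated at 4,000 cells/well in 1% FBS medium and incubated overnight at 37° C. Luminescence read after BrightGlo addition, normalized to DMSO-only cells; EC50 from four-parameter variable-slope nonlinear regression.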

SW480 colon cancer cells = assay: Cell viability assay (CellTiter-Blue), SW480 cells, four days; settings: Homo sapiens; for EC50: 96 h, SW480 cell viability, four days, CellTiter-Blue; for inhibition at 10 µM: SW480, read-out: percent inhibition at 10 μM
Method in brief: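 Fluorescence from resazurin reduced to resorufin by metabolically active cells was the read-out, taken after ~3 h with CellTiter-Blue.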

[4] = system: primary human fibroblasts derived from IPF patients (LL29 cells) treated with TGF-β1; assay: Inhibition of the fibrotic process: αSMA staining in TGF-β1 treated LL29 fibroblasts; settings: Fibroblast; for EC50: 96 h, LL29 cells, TGF-β1 20 ng/mL, 4 days, % αSMA positive cells; for inhibition at 10 µM: read-out: percent inhibition at 10 μM
Method in brief: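 IPF-patient-derived LL29 lung fibroblasts in F12 with 1% FBS, stimulated with TGF-β1 alongside compound; TGF-β1 plus DMSO wells served as controls. After 4 days, nuclei stained with 1 μM SYTOX green for 30 min at room temperature, alongside αSMA staining.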

SMILES | EC50 [1] | Emax [1] | EC50 [2] | EC50 [3] | EC50 (SW480 colon cancer cells) | EC50 [4] | inhibition at 10 µM [2] | inhibition at 10 µM [3] | inhibition at 10 µM (SW480 colon cancer cells) | inhibition at 10 µM [4]
Nc1cncc(-c2ccc3[nH]nc(-c4cc5c(N6CCCCC6)ccnc5[nH]4)c3c2)c1 [Compound 171, 5-(3-(4-(Piperidin-1-yl)-1H-pyrrolo[2,3-b]pyridin-2-yl)-1H-indazol-5-yl) pyridin-3-amine] | 30 nM | 130% | 622 nM | 604 nM | 1230 nM | 1720 nM |  |  |  | 
c1cncc(-c2ccc3[nH]nc(-c4cc5c(N6CCCCC6)ccnc5[nH]4)c3c2)c1 [Compound 172, 3-(4-(Piperidin-1-yl)-1H-pyrrolo[2,3-b]pyridin-2-yl)-5-(pyridin-3-yl)-1H-indazole] | 2700 nM | 162% | > 10000 nM | > 10000 nM | > 10000 nM | > 10000 nM | 31.8% | 48.2% | 8.9% | 25.1%
c1cc(N2CCCCC2)c2cc(-c3n[nH]c4ccc(-c5cncc(CN6CCCC6)c5)cc34)[nH]c2n1 [Compound 182, 3-(4-(Piperidin-1-yl)-1H-pyrrolo[2,3-b]pyridin-2-yl)-5-(5-(pyrrolidin-1-ylmethyl)pyridin-3-yl)-1H-indazole] |  | 21% | 315 nM | > 10000 nM | 4080 nM | 7760 nM |  | 36% |  | 
CN1CCN(c2ccnc3[nH]c(-c4n[nH]c5ccc(-c6cncc(N)c6)cc45)cc23)CC1 [Compound 227, 5-(3-(4-(4-Methylpiperazin-1-yl)-1H-pyrrolo[2,3-b]pyridin-2-yl)-1H-indazol-5-yl)pyridin-3-amine] | 100 nM | 50% | 7340 nM | 1170 nM | > 10000 nM | > 10000 nM |  |  | 42.3% | 51.2%
CN1CCN(c2ccnc3[nH]c(-c4n[nH]c5ccc(-c6cncc(CN7CCCC7)c6)cc45)cc23)CC1 [Compound 238, 3-(4-(4-Methylpiperazin-1l-yl)-1H-pyrrolo[2,3-b]pyridin-2-yl)-5-(5-(pyrrolidin-1-ylmethyl)pyridin-3-yl)-1H-indazole] |  | 22% | > 10000 nM | 3480 nM | 4340 nM | 1920 nM | 29.4% |  |  | 
CN1CCN(c2ccnc3[nH]c(-c4n[nH]c5ccc(-c6cncc(CNCc7ccccc7)c6)cc45)cc23)CC1 [Compound 248, N-Benzyl-1-(5-(3-(4-(4-methylpiperazin-1-yl)-1H-pyrrolo[2,3-b]pyridin-2-yl)-1H-indazol-5-yl)pyridin-3-yl)methanamine] |  | 17% | 7730 nM | 3370 nM | 2170 nM | 2260 nM |  |  |  | 
Nc1cncc(-c2ccc3[nH]nc(-c4cc5cccnc5[nH]4)c3c2)c1 [Compound 255, 5-(3-(1H-Pyrrolo[2,3-b]pyridin-2-yl)-1H-indazol-5-yl)pyridin-3-amine] |  | 36% | 15 nM | 102 nM | 632 nM | 138 nM |  |  |  | 
CC(C)C(=O)Nc1cncc(-c2ccc3[nH]nc(-c4cc5cccnc5[nH]4)c3c2)c1 [Compound 261, N-(5-(3-(1H-Pyrrolo[2,3-b]pyridin-2-yl)-1H-indazol-5-yl)pyridin-3-yl) isobutyramide] | 900 nM | 131% | 9 nM | 178 nM | 405 nM | 102 nM |  |  |  | 
c1cnc2[nH]c(-c3n[nH]c4ccc(-c5cncc(CN6CCCCC6)c5)cc34)cc2c1 [Compound 267, 5-(5-(Piperidin-1-ylmethyl)pyridin-3-yl)-3-(1H-pyrrolo[2,3-b]pyridin-2-yl)-1H-indazole] | 10 nM | 51% | 177 nM | 1670 nM | 675 nM | 458 nM |  |  |  | 
CCCCC(=O)Nc1cncc(-c2ccc3[nH]nc(-c4cc5cccnc5[nH]4)c3c2)c1 [Compound 271, N-(5-(3-(1H-Pyrrolo[2,3-b]pyridin-2-yl)-1H-indazol-5-yl)pyridin-3-yl) pentanamide] |  | 34% | 23 nM | 324 nM | 1060 nM | 712 nM |  |  |  | 
O=C(Nc1cncc(-c2ccc3[nH]nc(-c4cc5cccnc5[nH]4)c3c2)c1)C1CCCC1 [Compound 274, N-(5-(3-(1H-Pyrrolo[2,3-b]pyridin-2-yl)-1H-indazol-5-yl)pyridin-3-yl) cyclopentanecarboxamide] |  | 30% | 18 nM | 271 nM | 656 nM | 427 nM |  |  |  | 
c1cnc2[nH]c(-c3n[nH]c4ccc(-c5cncnc5)cc34)cc2c1 [Compound 279, 5-(Pyrimidin-5-yl)-3-(1H-pyrrolo[2,3-b]pyridin-2-yl)-1H-indazole] | 10 nM | 84% | 140 nM | > 10000 nM | > 10000 nM | 9840 nM |  | 16.6% | 17.9% | 
c1cncc(-c2ccc3[nH]nc(-c4cc5c(-c6ccsc6)ccnc5[nH]4)c3c2)c1 [Compound 284, 5-(Pyridin-3-yl)-3-(4-(thiophen-3-yl)-1H-pyrrolo[2,3-b]pyridin-2-yl)-1H-indazole] |  | 39% | 347 nM | > 10000 nM | 352 nM | 2200 nM |  | 38% |  | 
c1cc(-c2ccsc2)c2cc(-c3n[nH]c4ccc(-c5cncc(CN6CCCCC6)c5)cc34)[nH]c2n1 [Compound 295, 5-(5-(Piperidin-1-ylmethyl)pyridin-3-yl)-3-(4-(thiophen-3-yl)-1H-pyrrolo[2,3-b]pyridin-2-yl)-1H-indazole] | 30 nM | 73% | > 10000 nM | > 10000 nM | > 10000 nM | > 10000 nM | 34.9% | 37.1% | 2.1% | 16.8%
Cc1ccncc1-c1ccc2[nH]nc(-c3cc4c(-c5ccoc5)ccnc4[nH]3)c2c1 [Compound 313, 3-(4-(Furan-3-yl)-1H-pyrrolo[2,3-b]pyridin-2-yl)-5-(4-methylpyridin-3-yl)-1H-indazole] | 100 nM | 67% | 1010 nM | 4280 nM | > 10000 nM | > 10000 nM |  |  | 0% | 36.3%
CC(C)(C)CC(=O)Nc1cncc(-c2ccc3[nH]nc(-c4cc5c(-c6ccoc6)ccnc5[nH]4)c3c2)c1 [Compound 324, N-(5-(3-(4-(Furan-3-yl)-1H-pyrrolo[2,3-b]pyridin-2-yl)-1H-indazol-5-yl)pyridin-3-yl)-3,3-dimethylbutanamide] |  | 21% | 694 nM | 890 nM | 9200 nM | > 10000 nM |  |  |  | 0%
Fc1cccc(-c2ccnc3[nH]c(-c4n[nH]c5ccc(C6CCNCC6)cc45)cc23)c1 [Compound 505, 3-(4-(3-Fluorophenyl)-1H-pyrrolo[2,3-b]pyridin-2-yl)-5-(piperidin-4-yl)-1H-indazole] | 900 nM | 103% | 166 nM | 563 nM | 465 nM | 335 nM |  |  |  | 
Cn1cc(-c2ccc3[nH]nc(-c4cc5c(-c6cccnc6)ccnc5[nH]4)c3c2)cn1 [Compound 556, 5-(1-Methyl-1H-pyrazol-4-yl)-3-(4-(pyridin-3-yl)-1H-pyrrolo[2,3-b]pyridin-2-yl)-1H-indazole] |  | 28% | 586 nM | > 10000 nM | > 10000 nM | 191 nM |  | 20% | 0% | 
CN1CCN(c2ccnc3[nH]c(-c4n[nH]c5ccc(-c6cncc(NC(=O)CC7CCNCC7)c6)cc45)cc23)CC1 [Compound 641, N-(5-(3-(4-(4-Methylpiperazin-1-yl)-1H-pyrrolo[2,3-b]pyridin-2-yl)-1H-indazol-5-yl)pyridin-3-yl)-2-(piperidin-4-yl)acetamide] |  | 17% | > 10000 nM | > 10000 nM | > 10000 nM | > 10000 nM | 26% | 10.8% | 16.2% | 23.5%
